Assay results from patent US20010049374A1 (priority 1997, published 2001).
pIC50: −log10 of the molar value. Like-named read-outs stand apart in the source and are kept apart here.

Molecular target: T1, urokinase enzyme Abbokinase (Homo sapiens, UniProt P00749)
T1 construct: purchased Abbott Laboratories, Abbott Park, Ill
Experiment: Determination of urokinase inhibition (Abbokinase, chromogenic substrate S-2444)
Assay type: biochemical

[1] = Inhibitory potency against urokinase, substrate S-2444 at 200 μM, enzyme 2-3 nM, pH 7.4, 405 nm, read-out: IC50
[2] = IC50, Inhibitory potency against urokinase, substrate S-2444 at 200 μM, enzyme 2-3 nM, pH 7.4, 405 nm

Procedure: Several vials were reconstituted as directed on the vial, aliquoted and stored frozen. The enzyme was further diluted in assay buffer and 10 μl was used in the assay. Enzyme concentration in the assay was 2-3 nM. […] The Spectromax® calculated the reaction rates which were used to calculate percent inhibition of the compounds of this invention versus the reaction rate of the enzyme in the absence of any inhibitor. The Ki's of the inhibitors were calculated from the percent inhibition and previously established Km.

Row | Compound | pIC50 [1] | also measured
1 | 6-(aminoiminomethyl)-N-(4-methylphenyl)-2-naphthalenecarboxamide [Example 132] | 6.02 | –
2 | 4-Amino-N-[3-(6-aminoiminomethyl-2-naphthalenyl)-2-propynyl]benzamide [Example 36] | 5.76 | –
3 | N=C(N)c1ccc2cc(-c3ccccc3CO)ccc2c1 [Example 51, 6-[2-(Hydroxymethyl)phenyl]-2-naphthalenecarboximidamide] | – | pIC50 [2]: 5.33
4 | CCCSc1cc(-c2cc(C(=O)Nc3ccccc3)cc3ccc(C(=N)N)cc23)co1 [Example 201] | 7.11 | –
5 | 6-(aminoiminomethyl)-N-(3-ethoxyphenyl)-2-naphthalenecarboxamide [Example 223] | 7.15 | –
6 | 7-Methoxy-8-(1-acetyl-1H-pyrazolyl)-2-naphthalenecarboximidamide [Example 86] | 5.44 | –
7 | 6-(aminoiminomethyl)-4-(3-furanyl)-N-(1H-pyrazol-3-yl)-2-naphthalenecarboxamide [Example 116] | 7.35 | –
8 | NC(=NO)c1ccc2cc(C(=O)Nc3ccccc3)ccc2c1 [Example 171] | – | pIC50 [2]: < 4.52
9 | 6-(aminoiminomethyl)-N-(2,3-dihydro-1H-inden-5-yl)-2-naphthalenecarboxamide [Example 118] | 6.92 | –
10 | 6-(aminoiminomethyl)-N-(pyrazinyl)-2-naphthalenecarboxamide [Example 193] | 6.07 | –
11 | CC(=O)C=Cc1ccc2cc(C(=N)N)ccc2c1 [Example 52, 6-(3-Oxo-1-butenyl)-2-naphthalenecarboximidamide] | – | pIC50 [2]: 5.33
12 | 6-(aminoiminomethyl)-4-[5-(methoxymethyl)-3-furanyl]-N-phenyl-2-naphthalenecarboxamide [Example 230] | 6.99 | –
13 | 6-(aminoiminomethyl)-N-[3-(cyclobutylmethoxy)phenyl]-2-naphthalenecarboxamide [Example 225] | – | pIC50 (pH 7.4, read-out: IC50): 6.98
14 | N-[6-(aminoiminomethyl)-2-naphthalenyl]-N′-(4-aminophenyl)urea [Example 138] | 6.34 | –
15 | N-(6-Aminoiminomethyl-2-naphthalenyl)-N′-benzylurea [Example 69] | 5.86 | –
16 | N=C(N)c1ccc2cc(/C=C/c3ccc(C(N)=O)cc3)ccc2c1 [Example 88, (E)-4-[2-(6-Aminoininomethyl-2-naphthalenyl)ethenyl]benzamide] | 5.56 | –
17 | 6-(aminoiminomethyl)-N-(3, 4, 5-trimethoxyphenyl)-2-naphthalenecarboxamide [Example 195] | 5.89 | –
18 | 6-(aminoiminomethyl)-N-(3, 5-difluorophenyl)-2-naphthalenecarboxamide [Example 190] | 6.25 | –
19 | N-[7-(aminoiminomethyl)-1-naphthalenyl)propanamide [Example 159] | 5.65 | –
20 | N-[4-(Aminomethyl)phenyl]-6-aminoiminomethyl-2-naphthalenecarboxamide [Example 8] | 7.00 | –
21 | N-phenyl-6-aminoiminomethyl-2-naphthalenecarboxamide [Example 55] | 6.05 | –

Row | Compound | pIC50 [1] | also measured
22 | Methyl [7-(aminoiminomethyl)-1-naphthalenyl)carbamate [Example 16] | 7.52 | –
23 | methyl 4-[[[7-(aminoiminomethyl)-1-(2-pyrimidinylamino)-2-naphthalenyl]oxy]methyl]benzoate [Example 133] | 7.36 | –
24 | COc1ccc2ccc(C(=N)N)cc2c1Nc1cnccn1 [Example 150, 7-methoxy-8-(pyrazinylamino)-2-naphthalenecarboximidamide] | – | pIC50 [2]: 6.80
25 | N=C(N)c1ccc2cc(-c3cccc(C=O)c3)ccc2c1 [Example 111, 6-(3-formylphenyl)-2-naphthalenecarboximidamide] | – | pIC50 [2]: 5.38
26 | N-[7-(aminoiminomethyl)-1-naphthalenyl]-2-hydroxyacetamide [Example 162] | 5.88 | –
27 | 6-(aminoiminomethyl)-4-[5-(propylsulfonyl)-3-furanyl]-N-phenyl-2-naphthalenecarboxamide [Example 228] | 7.60 | –
28 | N=C(N)c1ccc2cc(NC(=O)Nc3ccc(CN)cc3)ccc2c1 [Example 140, N-[6-(aminoiminomethyl)-2-naphthalenyl]-N′-[(4-aminomethyl)phenyl]urea] | – | pIC50 [2]: 6.34
29 | CC(=O)CCc1ccc2cc(C(=N)N)ccc2c1 [Example 46, 6-(3-Oxobutyl)-2-naphthalenecarboximidamide] | – | pIC50 [2]: 5.62
30 | N=C(N)c1ccc2cc(-c3ncc(-c4ccccc4)s3)ccc2c1 [Example 145, 6-(5-phenyl-2-thiazolyl)-2-naphthalenecarboximidamide] | – | pIC50 [2]: 5.59
31 | COC(=O)CCCCOc1ccc2ccc(C(=N)N)cc2c1 [Example 119, methyl 5-[7-[(aminoiminomethyl)-2-naphthalenyl]oxy]pentanoate] | 5.36 | –
32 | N=C(N)c1ccc2cc(Oc3ccccc3C=O)ccc2c1 [Example 49, 6-(2-Formylphenoxy)-2-naphthalenecarboximidamide] | – | pIC50 [2]: 5.48
33 | Methyl [3-methoxy-6-(aminoiminomethyl)-4-naphthalenyl]carbamate [Example 90] | 7.15 | –
34 | COc1ccc2ccc(C(=N)N)cc2c1C1CCOC1 (racemic) [Example 62, (±)-7-Methoxy-8-(tetrahydro-3-furanyl)-2-naphthalenecarboximidamide] | – | pIC50 (IC50): 6.19
35 | 1-[(7-Aminoiminomethyl-2-methoxy-1-naphthalenyl)oxy]-3-hydroxypropane [Example 10] | 5.49 | –
36 | CC(C)(C)OC(=O)NCc1ccc(C#Cc2ccc3cc(C(=N)N)ccc3c2)cc1 [Example 123, 1,1-dimethylethyl [[4-[[6-(aminoiminomethyl)-2-naphathalenyl]ethynyl]phenyl]methyl]carbamate] | 5.91 | –
37 | methyl 2-[[6-(aminoiminomethyl)-2-naphthalenyl]oxy]acetate [Example 185] | 5.50 | –
38 | 2-[(7-Aminoiminomethyl-3-methoxy-1-naphthalenyl)oxy]acetamide [Example 39] | 4.91 | –
39 | N=C(N)c1ccc2ccc(OCCN3CCOCC3)cc2c1 [Example 206, 7-[2-(4-morpholinyl)ethoxy]-2-naphthalenecarboximidamide] | – | pIC50 [2]: 5.24
40 | 6-(aminoiminomethyl)-N-(3-phenoxyphenyl)-2-naphthalenecarboxamide [Example 221] | 6.28 | –
41 | N-(6-aminoiminomethyl-2-naphthalenyl)-N′-phenylurea [Example 40] | 6.51 | –
42 | N-(6-aminoiminomethyl-2-naphthalenyl)-N′-cyclohexylurea [Example 74] | 5.79 | –

Row | Compound | pIC50 [1] | also measured
43 | Methyl 3-[[7-(aminoiminomethyl)-1-naphthalenyl]amino]-3-oxopropionate [Example 17] | 5.37 | –
44 | Cc1cc(NC(=O)c2ccc3cc(C(=N)N)ccc3c2)no1 [Example 192] | 5.80 | –
45 | N=C(N)c1ccc2cc(C#CCCc3ccccc3)ccc2c1 [Example 28, 6-(4-Phenylbutynyl)-2-naphthalenecarboximidamide] | 5.68 | –
46 | 4-[[[7-(aminoiminomethyl)-1-(2-pyrimidinylamino)-2-naphthalenyl]oxy]methyl]benzoic acid [Example 134] | 7.19 | –
47 | 6-(aminoiminomethyl)-N-(1,3-benzodioxol-5-yl)-2-naphthalenecarboxamide [Example 188] | 6.66 | –
48 | COc1ccc2ccc(C(=N)N)cc2c1Oc1ncccn1 [Example 64, 7-Methoxy-8-[2-pyrimidinyl(oxy)]-2-naphthalenecarboximidamide] | – | pIC50 [2]: 6.25
49 | 6-(aminoiminomethyl)-N-(1H-indazol-6-yl)-2-naphthalenecarboxamide [Example 203] | 6.20 | –
50 | (S)-2-Amino-N-[1-[(6-aminoiminomethyl-2-naphthalenyl)carbonyl]cyclohexyl]propionamide [Example 37] | 5.63 | –
51 | 6-(aminoiminomethyl)-N-[4-(hydroxymethyl)phenyl]-2-naphthalenecarboxamide [Example 92] | 7.40 | –
52 | N=C(N)c1ccc2cc(-c3ncc(-c4ccccc4)o3)ccc2c1 [Example 144, 6-(5-phenyl-2-oxazolyl)-2-naphthalenecarboximidamide] | – | pIC50 [2]: 5.90
53 | N=C(N)c1ccc2cc(N)ccc2c1 [Example 73, 6-Aminonaphthalene-2-carboximidamide] | – | pIC50 [2]: 5.48
54 | N-[7-(aminoiminomethyl)-1-naphthalenyl)-2-methoxyacetamide [Example 160] | 5.58 | –
55 | 6-(aminoiminomethyl)-4-(3-furanyl)-N-(3-pyridinyl)-2-naphthalenecarboxamide [Example 117] | 6.56 | –
56 | COc1ccc2ccc(C(=N)N)cc2c1Oc1ccc([N+](=O)[O-])cc1 [Example 66, 7-Methoxy-8-(4-nitrophenoxy)-2-naphthalenecarboximidamide] | – | pIC50 [2]: 5.50
57 | COc1cc2ccc(C(=N)N)cc2cc1OC [Example 3, 6,7-dimethoxy-2-naphthalenecarboximidamide] | – | pIC50 [2]: 4.44
58 | N=C(N)c1ccc2cc(C#CCNC(=O)c3cccc(N)c3)ccc2c1 [Example 35] | 5.40 | –
59 | 6-(aminoiminomethyl)-N-(2-thiazolyl)-2-naphthalenecarboxamide [Example 186] | 5.53 | –
60 | propyl [7-(aminoiminomethyl)-1-naphthalenyl]carbamate [Example 156] | 6.74 | –
61 | [H]/N=C(/N)c1ccc2cc(C=Cc3cccs3)ccc2c1 [Example 45, (E)-6-[2-(2-Thienyl)ethenyl]-2-naphthalenecarboximidamide] | – | pIC50 [2]: 5.53
62 | 6-(aminoiminomethyl)-4-[1-(methylsulfonyl)-1H-pyrazol-4-yl]-N-phenyl-2-naphthalenecarboxamide [Example 153] | 6.06 | –
63 | N-[6-(aminoiminomethyl)-2-naphthalenyl)benzamide [Example 136] | 5.78 | –
